Patent US10857201B2, “NNIF and nNIF-related peptides and related methods” (UNIVERSITY OF UTAH RESEARCH FOUNDATION, priority 2016, dated 2020)
“Also recorded” adds a separate entry of the source.

Legend:
[1] = test system: NET formation in E. coli peritonitis; experiment: Mouse model of E. coli peritonitis (in vivo NET formation); conditions: for NET formation by peritoneal fluid PMNs / deployment of NETs on the peritoneal surface / number of PMNs in peritoneal fluid: C57BL/6 mice, 3 hours; for NET formation by peritoneal fluid PMNs / deployment of NETs on the peritoneal surface: 10 mg/kg i.p. 1 hour before E. coli i.p.; for number of PMNs in peritoneal fluid: E. coli i.p.; for peritoneal NET formation: Swiss Webster mice infected with E. coli
Source text: FIG. 8A depicts results of peritoneal fluid NET formation (red fluorescence, yellow arrow) assessed by live cell imaging (60× magnification, scale bar=50 μm) and histone H3 release (red dashed line=baseline arbitrarily set at 1). Three mice per group. One way ANOVA with Tukey's post hoc testing, ***P<0.001 for CRISPP and nNIF versus CRISPP-SCR.
FIG. 8B depicts results of NET formation on the surfaces of peritoneal membranes (red fluorescence, yellow arrows) that was quantified by counting the number of NETs that crossed standardized grid lines in […] (60× magnification; scale bar=50 μm) using IMAGEJ™ software. A second experiment yielded a similar pattern. FIGS. 8A and 8B depict C57BL/6 mice that were not pretreated or pretreated with nNIF, CRISPP, or CRISPP-SCR (10 mg/kg i.p.; 1 hour) and were inoculated with E. coli (4.5×10^7 bacteria i.p.). After 3 hours, the animals were sacrificed, and peritoneal fluid (FIG. 8A) and membranes (FIG. 8B) were collected for analysis.
FIG. 8C depicts C57BL/6 mice that were not pretreated (left two bars) or that were pretreated with CRISPP, nNIF, or CRISPP-SCR, and that were inoculated with E. coli i.p. as in FIGS. 8A and 8B. Neutrophil numbers in peritoneal fluid were counted after 3 hours (3-5 mice/group). […]
FIG. 8E depicts peritoneal fluid NET formation, imaged and measured as in FIG. 8A (10 mice/group). *P<0.05 for CRISPP/E. coli and nNIF/E. coli compared to CRISPP-SCR/E. coli and E. coli.
FIG. 8F depicts NET formation on peritoneal membrane surfaces, imaged and quantitated as in FIG. 8B (3 mice in each group). *P<0.05 for E. coli versus control (red dashed line); **P<0.01 for CRISPP-SCR/E. coli versus control; †P<0.05 for CRISPP/E. coli and nNIF/E. coli versus CRISPP-SCR/E. coli. One way ANOVA with Tukey's post-hoc testing applied in FIGS. 8E and 8F. In FIGS. 8E and 8F, Swiss-Webster mice that were not pretreated or that were pretreated with nNIF, CRISPP, or CRISPP-SCR were inoculated with E. coli i.p. as in FIGS. 8A and 8B. After 3 hours, peritoneal fluid and membranes were collected. FIGS. 8A-8F indicate that nNIF and CRISPP inhibit in vivo NET formation.
C57/BL6 or Swiss-Webster mice were pretreated in blinded fashion with CRISPP (10 mg/kg), nNIF (10 mg/kg), or CRISPP-SCR (10 mg/kg) by i.p. injection 1 hour prior to infection (E. coli, 4.5×10^7 cfu/mouse, i.p.) or inoculation (LPS, 25 mg/kg, i.p.) (SIGMA-ALDRICH®). Control mice were injected with saline alone. The mice were sacrificed in a CO2 chamber 3 hours post-infection/inoculation, and the peritoneal fluid and membrane samples were harvested. Briefly, the abdomen was disinfected and opened in the midline without injuring the muscle. The peritoneal cavity was lavaged with sterile saline solution (1 mL) and analyzed for in vivo NET formation, bacteriology, and leukocyte accumulation. NETs in the peritoneal fluid were qualitatively and quantitatively analyzed using live cell imaging with confocal microscopy and NET-associated histone H3 release assays. NETs on the serosal surface of the peritoneal membrane were assessed quantitatively using live cell imaging, followed by standardized grid analysis of five randomly selected high-power visual fields per tissue sample (IMAGEJ™ software, NIH). Peritoneal bacterial colony forming unit (cfu) counts were quantified by permeabilizing all recovered leukocytes with 0.1% Triton X-100 for 10 minutes and performing serial dilutions and bacterial cultures on 5% sheep blood agar plates (HARDY DIAGNOSTICS™). After a 24-hour incubation, bacterial counts were determined. Total leukocyte counts in the peritoneal lavage were determined in Neubauer chambers using an optical microscope after dilution in Turk's solution (2% acetic acid). Differential leukocyte analysis was performed using a 60× oil immersion objective to assess morphology of cyto-centrifuged cells stained with May-Gruenwald-Giemsa dye. All mice were included in the final analysis.

neutrophil elastase (NE) = target: T1, neutrophil elastase (NE) (Homo sapiens, UniProt P08246); experiment: Neutrophil elastase activity assay; type: biochemical; conditions: in vitro; (MeOSuc)-AAPV-(pNA) 160 μM, 3 hours, 37° C., and additional assays
T1 construct: purchased SIGMA-ALDRICH
T1 sequence (P08246 30-267): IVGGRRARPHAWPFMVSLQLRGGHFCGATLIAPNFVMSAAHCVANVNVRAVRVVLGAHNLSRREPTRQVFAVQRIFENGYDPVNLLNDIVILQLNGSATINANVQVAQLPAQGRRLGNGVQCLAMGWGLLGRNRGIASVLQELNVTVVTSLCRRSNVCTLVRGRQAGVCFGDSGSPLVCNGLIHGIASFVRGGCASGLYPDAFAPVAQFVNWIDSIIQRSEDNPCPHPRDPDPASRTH
Method: FIG. 12B depicts NE enzyme activity that was examined by cleavage of the synthetic substrate (MeOSuc)-AAPV-(pNA) to (MeOSuc)-AAPV and (pNA) as products detected by liquid chromatography and chromatogram peak identification by mass spectroscopy. (MeOSuc)-AAPV-(pNA) (160 μm) was incubated with NE (2 mU), sivelestat (160 μm), or NE and sivelestat (left panel) or with NE (2 mU), nNIF ([…]), or NE and nNIF (right panel) for 3 hours at 37° C. Chromatograms are offset on the X and Y axes for ease of comparison. In the presence of NE alone, the (MeOSvc)-AAPV-(pNA) peak was almost completely eliminated and (MeOSvc)-AAPV and (pNA) peaks were generated. […] In contrast, it was not inhibited by nNIF.
Synthetic fluorogenic substrate of NE, (MeOSuc)-AAPV-(pNA) (160 μM), was incubated with bioactive NE (500 nM)±the NE inhibitor, sivelestat (160 μM) or nNIF (50 nM), for 3 hours at 37° C. The reactions were quenched with 5% glacial acetic acid and centrifuged at 14,000 rpm for 5 minutes. Chromatograms were obtained using an AGILENT™ 1100 Series HPLC and a PHENOMENEX® 5 μm C18 LUNA® column (100 Å, 4.6×150 mm) over a 30 minute 10% to 90% B gradient (Buffer A 0.1% TFA in H2O, Buffer B 0.1% TFA in ACN). Mass spectra were obtained for secondary validation of the reaction products using an API® 3500 triple quadrupole mass spectrometer. Chromatograms were offset on both the X and Y axes (by 0.5 minutes and 0.1 A214, respectively) for greater visibility.

Substance | NET formation by peritoneal fluid PMNs [1] | deployment of NETs on the peritoneal surface [1] | number of PMNs in peritoneal fluid [1] | peritoneal NET formation [1] | NE activity (substrate cleavage) (neutrophil elastase (NE))
KFNKPFVFLMIEQNTKSPLFMGKVVNPTQ (listed as Homo sapiens) [nNIF] | inhibited | inhibited | trend was to greater numbers | inhibited | neither nNIF nor CRISPP inhibited NE activity; also recorded: not inhibited
M_IPPEVKFNKPFVFLMIDQNTKVPLFMGK [CRISPP, consensus peptide based on factors present in the blood of patients with cancer] | inhibited | inhibited | greater | inhibited | neither nNIF nor CRISPP inhibited NE activity
